Key:
[1] = tested on: CHO; assay: Cytotoxicity against CHO cells measured after 48 hrs by MTT assay; assay type: cell-based; conditions: Cricetulus griseus
[2] = tested on: Plasmodium falciparum; assay: Antiplasmodial activity against chloroquine-sensitive asexual blood stage of Plasmodium falciparum NF54 by LDH assay; assay type: functional, organism-based
[3] = Resistance index, ratio of IC50 for chloroquine-resistant asexual blood stage of Plasmodium falciparum K1 to IC50 for chloroquine-sensitive asexual blood stage of Plasmodium falciparum NF54; assay type: functional
[4] = tested on: Mycobacterium tuberculosis; assay: Antimycobacterial activity against Mycobacterium tuberculosis H37Rv after 14 days in presence of middlebrook 7H9/ADC medium by broth microdilution method; assay type: functional; conditions: 336 h
[5] = tested on: Mycobacterium tuberculosis; assay: Antimycobacterial activity against Mycobacterium tuberculosis H37Rv after 7 days in presence of middlebrook 7H9/ADC medium by microplate alamar blue assay; assay type: functional; conditions: 168 h
[6] = tested on: Mycobacterium tuberculosis; assay: Antimycobacterial activity against Mycobacterium tuberculosis H37Rv after 7 days in presence of middlebrook 7H9/CAS medium by microplate alamar blue assay; assay type: functional; conditions: 168 h
[7] = tested on: Plasmodium falciparum; assay: Antiplasmodial activity against chloroquine-resistant asexual blood stage of Plasmodium falciparum K1 by LDH assay; assay type: functional, organism-based
[8] = tested on: Mycobacterium tuberculosis; assay: Antimycobacterial activity against Mycobacterium tuberculosis H37Rv after 14 days in presence of middlebrook 7H9/CAS medium by broth microdilution method; assay type: functional; conditions: 336 h
[9] = Selectivity index, ratio of IC50 for CHO cells to IC50 for chloroquine-resistant asexual blood stage of Plasmodium falciparum K1; assay type: toxicity; conditions: hamster, read-out: Ratio IC50
[10] = Selectivity index, ratio of IC50 for CHO cells to IC50 for chloroquine-sensitive asexual blood stage of Plasmodium falciparum NF54; assay type: toxicity; conditions: hamster, read-out: Ratio IC50
[11] = tested on: Hemozoin; assay: Potency index, ratio of chloroquine IC50 to compound IC50 for inhibition of beta-hematin assessed as hemozoin formation
[12] = tested on: Hemozoin; assay: Inhibition of beta-hematin formation assessed as reduction in hemozoin formation incubated for 16 hrs by NP40 detergent-mediated assay
[13] = tested on: Plasmodium berghei; assay: Antimalarial activity against GFP-transfected Plasmodium berghei ANKA infected mouse assessed as reduction in parasitemia at 50 mg/kg, po consecutively at 4, 24, 48 and 72 hrs post infection by flow cytometry relative to control; assay type: functional
[14] = tested on: Plasmodium berghei; assay: Antimalarial activity against GFP-transfected Plasmodium berghei ANKA infected in mouse assessed as mean survival days at 50 mg/kg, po administered consecutively at 4, 24, 48 and 72 hrs post infection; assay type: functional

CC[C@H]1CN2CCc3cc(OC)c(OC)cc3[C@@H]2C[C@@H]1C[C@H]1NCCc2cc(OC)c(OC)cc21 [EMETINE]
IC50 [1]: 16.2 nM

N#Cc1ccc2c(c1)nc(-c1ccccc1)n2CCCNc1ccnc2cc(Cl)ccc12
IC50 [1]: 38900 nM | IC50 [2]: 975 nM | Ratio IC50 [3]: 0.183 | MIC90 [4]: > 125 µM | MIC90 [5]: > 62.5 µM | MIC90 [6]: > 125 µM | IC50 [7]: 179 nM | MIC90 [8]: 62.5 µM | selectivity ratio [9]: 217 | selectivity ratio [10]: 39.9

FC(F)(F)c1ccc2c(c1)nc(-c1ccccc1)n2CCCNc1ccnc2cc(Cl)ccc12
Ratio IC50 [11]: 4 | IC50 [1]: 16200 nM | IC50 [2]: 431 nM | Ratio IC50 [3]: 0.35 | MIC90 [4]: 62.5 µM | IC50 [12]: 16000 nM | MIC90 [5]: 89.1 µM | inhibition in vivo at 50 mg/kg [13]: 58% | MIC90 [6]: 15.8 µM | IC50 [7]: 151 nM | MIC90 [8]: 15.6 µM | MSD [14]: 7 days | selectivity ratio [9]: 107 | selectivity ratio [10]: 37.5

Clc1ccc2c(NCCCn3c(-c4ccccc4)nc4ccccc43)ccnc2c1
IC50 [1]: 42000 nM | IC50 [2]: 5550 nM | Ratio IC50 [3]: 0.0362 | MIC90 [4]: 125 µM | MIC90 [5]: 38.8 µM | MIC90 [6]: 50.6 µM | IC50 [7]: 201 nM | MIC90 [8]: 62.5 µM | selectivity ratio [9]: 209 | selectivity ratio [10]: 7.57

CS(=O)(=O)c1ccc2c(c1)nc(-c1ccccc1)n2CCCNc1ccnc2cc(Cl)ccc12
IC50 [1]: 40900 nM | IC50 [2]: 559 nM | Ratio IC50 [3]: 3.28 | MIC90 [4]: > 125 µM | MIC90 [5]: > 62.5 µM | MIC90 [6]: > 125 µM | IC50 [7]: 1830 nM | MIC90 [8]: 125 µM | selectivity ratio [9]: 22.4 | selectivity ratio [10]: 73.2

Cc1ccc2c(c1)nc(-c1ccccc1)n2CCCNc1ccnc2cc(Cl)ccc12
IC50 [1]: > 50000 nM | IC50 [2]: 784 nM | Ratio IC50 [3]: 0.583 | MIC90 [4]: 125 µM | MIC90 [5]: > 62.5 µM | MIC90 [6]: 32.7 µM | IC50 [7]: 457 nM | MIC90 [8]: 31.2 µM

CCN(CC)CCCC(C)Nc1ccnc2cc(Cl)ccc12 (centres undefined) [CHLOROQUINE]
IC50 [12]: 74000 nM

CO[C@H]1/C=C/O[C@@]2(C)Oc3c(C)c(O)c4c(O)c(c(/C=N/N5CCN(C)CC5)c(O)c4c3C2=O)NC(=O)/C(C)=C\C=C\[C@H](C)[C@H](O)[C@@H](C)[C@@H](O)[C@@H](C)[C@H](OC(C)=O)[C@@H]1C [RIFAMPIN]
MIC90 [4]: 0.018 µM | MIC90 [5]: 0.0156 µM | MIC90 [6]: 0.0217 µM | MIC90 [8]: 0.018 µM

C[C@H]1[C@H](OC(=O)CCC(=O)O)O[C@@H]2O[C@@]3(C)CC[C@H]4[C@H](C)CC[C@@H]1[C@@]24OO3 [ARTESUNATE]
IC50 [2]: 9.8 nM

From ChEMBL document CHEMBL4359849, “Bioisosteric ferrocenyl aminoquinoline-benzimidazole hybrids: Antimicrobial evaluation and mechanistic insights” (Eur J Med Chem, 2019)
